Measured values reported in patent publication US10434147B2, “Treatment type 2 diabetes mellitus patients” (Sanofi-Aventis Deutschland GmbH, priority 2015, dated 2019).
Marks after values point to notes of the source that are not given here.

Columns and labels:
Type in all cases: in vivo, human
[1] = tested on: Patients with Type 2 Diabetes Insufficiently Controlled with Insulin Glargine with or without Metformin; conditions: for Reason for treatment discontinuation: Lack of efficacy: Randomized population, HbA1c above […] at Week 12 or later; for Reason for treatment discontinuation: Adverse event: human, in vivo
[2] = tested on: Patients with Type 2 Diabetes Insufficiently Controlled with Insulin Glargine with or without Metformin; assay: Fasting plasma glucose, 26-week study; conditions: for Fasting plasma glucose change to Week 26, LS Mean difference (SE) of Lixisenatide vs. the labelled insulin glulisine arm / Fasting plasma glucose, Change from baseline to Week 26 (LOCF), LS Mean (SE): ANCOVA; for Fasting plasma glucose change to Week 26, LS Mean difference (SE) of Lixisenatide vs. the labelled insulin glulisine arm / Fasting plasma glucose, Change from baseline to Week 26 (LOCF), LS Mean (SE) / Fasting plasma glucose, Baseline, Mean (SD) / Fasting plasma glucose, Baseline, Median / Fasting plasma glucose, Week 26 (LOCF), Mean (SD) / Fasting plasma glucose, Week 26 (LOCF), Median / Fasting plasma glucose, Change from baseline to Week 26 (LOCF), Mean (SD) / Fasting plasma glucose, Change from baseline to Week 26 (LOCF), Median: mITT population; for FPG, BL (end run-in) mean ± SD / FPG, Screening (start run-in) mean ± SD / FPG, Week 26 (LOCF) mean ± SD / FPG, LS mean treatment difference (lixisenatide vs the labelled arm) / FPG, LS mean ± SE change from BL: mITT; for Fasting plasma glucose, Baseline, Mean (SD) / Fasting plasma glucose, Baseline, Median: Baseline (before IMP); for FPG, LS mean treatment difference (lixisenatide vs the labelled arm) / FPG, LS mean ± SE change from BL: Week 26
Excerpt: (§1) FIG. 6—Graphical study design. ^1 Insulin glargine should be injected subcutaneously once daily at dinner or breakfast time (according to patient's/investigators' preference). […] Meal used for insulin glulisine dosing should remain the same throughout the 26-week treatment period. ^4 Injection of insulin glulisine prior to breakfast, lunch and dinner.
(§2) Co-primary endpoints at 26 weeks were (1) non-inferiority (95% CI upper bound <0.4%) in HbA1c reduction with LIXI vs GLU-1 and (2) for LIXI vs GLU-3, either non-inferiority in HbA1c reduction (2a) OR superiority (one-sided α≤0.025) in body weight change (2b). FPG, PPG, IG dose, composite outcomes, AEs, and hypoglycemia were assessed.

[3] = tested on: Patients with Type 2 Diabetes Insufficiently Controlled with Insulin Glargine with or without Metformin; assay: 2-h PPG post test meal, 26-week study; conditions: subset of mITT treated before breakfast; for 2-h PPG post test meal, LS mean treatment difference (lixisenatide vs the labelled arm) / 2-h PPG post test meal, LS mean ± SE change from BL: Week 26
Experimental: as §2

[4] = tested on: Patients with Type 2 Diabetes Insufficiently Controlled with Insulin Glargine with or without Metformin; assay: Insulin dose (insulin glargine, insulin glulisine), 26-week study; conditions: for Insulin glargine dose change to Week 26, LS Mean difference (SE) of Lixisenatide vs. the labelled insulin glulisine arm / Insulin glargine dose, Change from baseline to Week 26 (LOCF), LS Mean (SE): ANCOVA; for Insulin glargine dose change to Week 26, LS Mean difference (SE) of Lixisenatide vs. the labelled insulin glulisine arm / Insulin glargine dose, Change from baseline to Week 26 (LOCF), LS Mean (SE) / Insulin glargine dose, Baseline, Mean (SD) / Insulin glargine dose, Baseline, Median / Insulin glargine dose, Week 26 (LOCF), Mean (SD) / Insulin glargine dose, Week 26 (LOCF), Median / Insulin glargine dose, Change from baseline to Week 26 (LOCF), Mean (SD) / Insulin glargine dose, Change from baseline to Week 26 (LOCF), Median: mITT population; for Insulin glargine dose, Baseline, Mean (SD) / Insulin glargine dose, Baseline, Median: Baseline (before IMP); for Insulin Glargine dose, LS mean + SE change from BL / Insulin Glargine dose, LS mean treatment difference (lixisenatide vs the labelled arm): Week 26
Excerpt: as §1, §2

[5] = tested on: Patients with Type 2 Diabetes Insufficiently Controlled with Insulin Glargine with or without Metformin; assay: HbA1c, randomized open-label active-controlled 3-arm 26-week study (GetGoal-Duo2); conditions: for HbA1c change to Week 26, LS Mean difference (SE) of Lixisenatide vs. the labelled insulin glulisine arm / HbA1c, Change from baseline to Week 26 (LOCF), LS Mean (SE): ANCOVA; for HbA1c change to Week 26, LS Mean difference (SE) of Lixisenatide vs. the labelled insulin glulisine arm / HbA1c, Change from baseline to Week 26 (LOCF), LS Mean (SE) / HbA1c, Baseline, Mean (SD) / HbA1c, Baseline, Median / HbA1c, Week 26 (LOCF), Mean (SD) / HbA1c, Week 26 (LOCF), Median / HbA1c, Change from baseline to Week 26 (LOCF), Mean (SD) / HbA1c, Change from baseline to Week 26 (LOCF), Median: mITT population; for HbA1c, BL (end run-in) mean ± SD / HbA1c, Screening (start run-in) mean ± SD / HbA1c, Week 26 (LOCF) mean ± SD / HbA1c, LS mean treatment difference (lixisenatide vs the labelled arm), co-primary endpoint / HbA1c, LS mean ± SE change from BL: mITT; for HbA1c, Baseline, Mean (SD) / HbA1c, Baseline, Median: Baseline (before IMP); for HbA1c, Week 26 (LOCF) mean ± SD / HbA1c, LS mean treatment difference (lixisenatide vs the labelled arm), co-primary endpoint / HbA1c, LS mean ± SE change from BL: Example 2 table; for HbA1c, LS mean treatment difference (lixisenatide vs the labelled arm), co-primary endpoint / HbA1c, LS mean ± SE change from BL: Week 26
Excerpt: as §1, §2

Insulin Glulisine QD: insulin glulisine once daily, added to insulin glargine ± metformin (comparator arm)
Reason for treatment discontinuation: Lack of efficacy [1]: 4 (1.3%) n (%) | Reason for treatment discontinuation: Adverse event [1]: 2 (0.7%) n (%) | Fasting plasma glucose change to Week 26, LS Mean difference (SE) of Lixisenatide vs. the labelled insulin glulisine arm [2]: −0.01 (0.157) mmol/L | Fasting plasma glucose, Change from baseline to Week 26 (LOCF), LS Mean (SE) [2]: −0.21 (0.142) mmol/L | FPG, BL (end run-in) mean ± SD [2]: 123 ± 36 mg/dL | Fasting plasma glucose, Baseline, Mean (SD) [2]: 6.85 (1.99) mmol/L | Fasting plasma glucose, Baseline, Median [2]: 6.50 mmol/L | FPG, Screening (start run-in) mean ± SD [2]: 167 ± 52 mg/dL | FPG, Week 26 (LOCF) mean ± SD [2]: 120 ± 35 mg/dL | Fasting plasma glucose, Week 26 (LOCF), Mean (SD) [2]: 6.66 (1.94) mmol/L | Fasting plasma glucose, Week 26 (LOCF), Median [2]: 6.40 mmol/L | FPG, LS mean treatment difference (lixisenatide vs the labelled arm) [2]: 0 mg/dL | FPG, LS mean ± SE change from BL [2]: -4 ± 3 mg/dL | Fasting plasma glucose, Change from baseline to Week 26 (LOCF), Mean (SD) [2]: −0.19 (2.52) mmol/L | Fasting plasma glucose, Change from baseline to Week 26 (LOCF), Median [2]: -0.10 mmol/L | 2-h PPG post test meal, BL (end run-in) mean ± SD [3]: 249 ± 63 mg/dL | 2-h PPG post test meal, Week 26 (LOCF) mean ± SD [3]: 220 ± 60 mg/dL | 2-h PPG post test meal, LS mean treatment difference (lixisenatide vs the labelled arm) [3]: -37 mg/dL | 2-h PPG post test meal, LS mean ± SE change from BL [3]: -28 ± 11 mg/dL | Insulin glargine dose change to Week 26, LS Mean difference (SE) of Lixisenatide vs. the labelled insulin glulisine arm [4]: 0.76 (1.104) U | Insulin glargine dose, Change from baseline to Week 26 (LOCF), LS Mean (SE) [4]: −0.06 (0.999) U | Insulin Glargine dose, BL (end run-in) mean ± SD ([4]; mITT): 65 ± 32 U/day | Insulin glargine dose, Baseline, Mean (SD) [4]: 64.79 (32.09) U | Insulin glargine dose, Baseline, Median [4]: 58.00 U | Insulin Glargine dose, Screening (start run-in) mean ± SD ([4]; Screening (start run-in), mITT): 40 ± 22 U/day | Insulin Glargine dose, Week 26 (LOCF) mean ± SD ([4]; mITT): 64 ± 36 U/day | Insulin glargine dose, Week 26 (LOCF), Mean (SD) [4]: 63.89 (35.67) U | Insulin glargine dose, Week 26 (LOCF), Median [4]: 54.00 U | Insulin Glargine dose, LS mean + SE change from BL ([4]; mITT): −0.1 ± 1.0 U/day | Insulin Glargine dose, LS mean treatment difference (lixisenatide vs the labelled arm) ([4]; mITT): 0.8 U/day | Insulin glargine dose, Change from baseline to Week 26 (LOCF), Mean (SD) [4]: −0.91 (13.41) U | Insulin glargine dose, Change from baseline to Week 26 (LOCF), Median [4]: −1.33 U | HbA1c change to Week 26, LS Mean difference (SE) of Lixisenatide vs. the labelled insulin glulisine arm [5]: −0.05 (0.059) % | HbA1c, Change from baseline to Week 26 (LOCF), LS Mean (SE) [5]: −0.58 (0.054) % | HbA1c, BL (end run-in) mean ± SD [5]: 7.7 ± 0.6% | HbA1c, Baseline, Mean (SD) [5]: 7.72 (0.58) % | HbA1c, Baseline, Median [5]: 7.70% | HbA1c, Screening (start run-in) mean ± SD [5]: 8.5 ± 0.7% | HbA1c, Week 26 (LOCF), Mean (SD) [5]: 7.21 (0.79) % | HbA1c, Week 26 (LOCF), Median [5]: 7.10% | HbA1c, Week 26 (LOCF) mean ± SD [5]: 7.2 ± 0.8% | HbA1c, LS mean treatment difference (lixisenatide vs the labelled arm), co-primary endpoint [5]: −0.1^† % | HbA1c, LS mean ± SE change from BL [5]: −0.6 ± 0.1% | HbA1c, Change from baseline to Week 26 (LOCF), Mean (SD) [5]: −0.51 (0.80) % | HbA1c, Change from baseline to Week 26 (LOCF), Median [5]: −0.50%

Insulin Glulisine TID: insulin glulisine three times daily, added to insulin glargine ± metformin (comparator arm)
Reason for treatment discontinuation: Lack of efficacy [1]: 0 n (%) | Reason for treatment discontinuation: Adverse event [1]: 5 (1.7%) n (%) | Fasting plasma glucose change to Week 26, LS Mean difference (SE) of Lixisenatide vs. the labelled insulin glulisine arm [2]: −0.17 (0.158) mmol/L | Fasting plasma glucose, Change from baseline to Week 26 (LOCF), LS Mean (SE) [2]: −0.06 (0.140) mmol/L | FPG, BL (end run-in) mean ± SD [2]: 120 ± 34 mg/dL | Fasting plasma glucose, Baseline, Mean (SD) [2]: 6.65 (1.89) mmol/L | Fasting plasma glucose, Baseline, Median [2]: 6.40 mmol/L | FPG, Screening (start run-in) mean ± SD [2]: 171 ± 53 mg/dL | FPG, Week 26 (LOCF) mean ± SD [2]: 121 ± 36 mg/dL | Fasting plasma glucose, Week 26 (LOCF), Mean (SD) [2]: 6.71 (2.02) mmol/L | Fasting plasma glucose, Week 26 (LOCF), Median [2]: 6.50 mmol/L | FPG, LS mean treatment difference (lixisenatide vs the labelled arm) [2]: -3 mg/dL | FPG, LS mean ± SE change from BL [2]: -1 ± 3 mg/dL | Fasting plasma glucose, Change from baseline to Week 26 (LOCF), Mean (SD) [2]: 0.05 (2.47) mmol/L | Fasting plasma glucose, Change from baseline to Week 26 (LOCF), Median [2]: -0.20 mmol/L | 2-h PPG post test meal, BL (end run-in) mean ± SD [3]: 262 ± 63 mg/dL | 2-h PPG post test meal, Week 26 (LOCF) mean ± SD [3]: 229 ± 69 mg/dL | 2-h PPG post test meal, LS mean treatment difference (lixisenatide vs the labelled arm) [3]: -40 mg/dL | 2-h PPG post test meal, LS mean ± SE change from BL [3]: -25 ± 11 mg/dL | Insulin glargine dose change to Week 26, LS Mean difference (SE) of Lixisenatide vs. the labelled insulin glulisine arm [4]: 3.83 (1.106) U | Insulin glargine dose, Change from baseline to Week 26 (LOCF), LS Mean (SE) [4]: −3.13 (0.982) U | Insulin Glargine dose, BL (end run-in) mean ± SD ([4]; mITT): 65 ± 27 U/day | Insulin glargine dose, Baseline, Mean (SD) [4]: 65.05 (27.01) U | Insulin glargine dose, Baseline, Median [4]: 60.67 U | Insulin Glargine dose, Week 26 (LOCF) mean ± SD ([4]; mITT): 61 ± 29 U/day | Insulin glargine dose, Week 26 (LOCF), Mean (SD) [4]: 61.16 (29.33) U | Insulin glargine dose, Week 26 (LOCF), Median [4]: 57.00 U | Insulin Glargine dose, LS mean + SE change from BL ([4]; mITT): −3.1 ± 1.0 U/day | Insulin Glargine dose, LS mean treatment difference (lixisenatide vs the labelled arm) ([4]; mITT): 3.9 U/day | Insulin glargine dose, Change from baseline to Week 26 (LOCF), Mean (SD) [4]: −3.89 (13.28) U | Insulin glargine dose, Change from baseline to Week 26 (LOCF), Median [4]: −4.00 U | HbA1c change to Week 26, LS Mean difference (SE) of Lixisenatide vs. the labelled insulin glulisine arm [5]: 0.21 (0.059) % | HbA1c, Change from baseline to Week 26 (LOCF), LS Mean (SE) [5]: −0.84 (0.053) % | HbA1c, BL (end run-in) mean ± SD [5]: 7.8 ± 0.6% | HbA1c, Baseline, Mean (SD) [5]: 7.79 (0.60) % | HbA1c, Baseline, Median [5]: 7.70% | HbA1c, Screening (start run-in) mean ± SD [5]: 8.5 ± 0.8% | HbA1c, Week 26 (LOCF), Mean (SD) [5]: 6.96 (0.73) % | HbA1c, Week 26 (LOCF), Median [5]: 7.00% | HbA1c, Week 26 (LOCF) mean ± SD [5]: 7.0 ± 0.7% | HbA1c, LS mean treatment difference (lixisenatide vs the labelled arm), co-primary endpoint [5]: 0.2^† % | HbA1c, LS mean ± SE change from BL [5]: −0.8 ± 0.1% | HbA1c, Change from baseline to Week 26 (LOCF), Mean (SD) [5]: −0.82 (0.78) % | HbA1c, Change from baseline to Week 26 (LOCF), Median [5]: −0.90%
